One series addresses T1, Flt-3 (Homo sapiens, UniProt P36888).
T1 construct: amino acids 563-993 of the cytoplasmic kinase domain of human Flt-3; made in house; host or cells: Sf9 insect cells (baculovirus, vector pFbacG01)
T1 sequence (P36888 563-993): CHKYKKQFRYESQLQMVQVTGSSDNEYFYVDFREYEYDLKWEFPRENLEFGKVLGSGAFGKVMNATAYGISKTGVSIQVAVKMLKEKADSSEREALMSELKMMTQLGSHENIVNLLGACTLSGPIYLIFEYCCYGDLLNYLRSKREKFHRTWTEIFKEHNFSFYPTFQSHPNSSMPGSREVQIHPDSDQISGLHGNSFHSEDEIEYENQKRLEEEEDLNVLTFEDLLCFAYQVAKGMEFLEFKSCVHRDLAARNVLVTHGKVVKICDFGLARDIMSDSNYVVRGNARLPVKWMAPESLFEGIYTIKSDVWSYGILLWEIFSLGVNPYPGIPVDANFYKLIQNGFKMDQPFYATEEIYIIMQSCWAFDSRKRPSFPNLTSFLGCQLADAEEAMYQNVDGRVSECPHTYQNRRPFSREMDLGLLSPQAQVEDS
Nature of the series: Flt-3 kinase inhibition (GST-Flt-3, 33P incorporation into poly(Glu,Tyr)). Format: biochemical. Here is the method: Flt-3 kinase inhibition is determined as follows: The baculovirus donor vector pFbacG01 (GIBCO) is used to generate a recombinant baculovirus expressing the amino acid region amino acids 563-993 of the cytoplasmic kinase domain of human Flt-3. The coding sequence for the cytoplasmic domain of Flt-3 is amplified by PCR from human c-DNA libraries (Clontech). The amplified DNA fragments and the pFbacG01 vector are made compatible for ligation by digestion with BamHI and HindIII. Ligation of these DNA fragments results in the baculovirus donor plasmid pFbacG01-Flt-3. The production of the viruses, the expression of proteins in Sf9 cells and the purification of the GST-fused proteins are performed as follows:
Production of virus: The baculovirus donor plasmid (pFbacG01-Flt-3) containing the Flt-3 kinase domain is transfected into the DH10Bac cell line (GIBCO) and the transfected cells are plated on selective agar plates. Colonies without insertion of the fusion sequence into the viral genome (carried by the bacteria) are blue. Single white colonies are picked and viral DNA (bacmid) is isolated from the bacteria by standard plasmid purification procedures. Sf9 or Sf21 cells (American Type Culture Collection) are then transfected in flasks with the viral DNA using Cellfectin reagent.
Protein expression in Sf9 cells: Virus containing media is collected from the transfected cell culture and used for infection to increase its titre. Virus containing media obtained after two rounds of infection is used for large-scale protein expression. For large-scale protein expression 100 cm^2 round tissue culture plates are seeded with 5×10^7 cells/plate and infected with 1 mL of virus-containing media (approx. 5 MOIs). After 3 days the cells are scraped off the plate and centrifuged at 500 rpm for 5 min. Cell pellets from 10-20, 100 cm^2 plates are resuspended in 50 mL of ice-cold lysis buffer (25 mM Tris-HCl, pH 7.5, 2 mM EDTA-1% NP-40. 1 mM DTT, 1 mM PMSF). The cells are stirred on ice for 15 min and then centrifuged at 5000 rpms for 20 min.
Purification of GST-tagged protein: The centrifuged cell lysate is loaded onto a 2 mL glutathione-sepharose column (Pharmacia) and washed three times with 10 mL of 25 mM Tris-HCl, pH 7.5, 2 mM EDTA, 1 mM DTT, 200 mM NaCl. The GST-tagged protein is then eluted by 10 applications (1 mL each) of 25 mM Tris-HCl, pH 7.5, 10 mM reduced-glutathione, 100 mM NaCl, 1 mM DTT, 10% Glycerol and stored at −70° C.
Measurement of enzyme activity: Tyrosine protein kinase assays with purified GST-Flt-3 protein are carried out in a final volume of 30 μL containing 200-1800 ng of enzyme protein (depending on the specific activity), 20 mM Tris-HCl, pH 7.6, 3 mM MnCl2, 3 mM MgCl2, 1 mM DTT, 10 μM Na3VO4, 3 μg/mL poly(Glu, Tyr) 4:1, 1% DMSO, 8.0 μM ATP and 0.1 μCi [γ^33 P] ATP. The activity is assayed in the presence or absence of inhibitors, by measuring the incorporation of ^33P from [γ^33P] ATP into the poly(Glu,Tyr) substrate. The assay (30 μL) is carried out in 96-well plates at ambient temperature for 20 min and terminated by the addition of 20 μL of 125 mM EDTA. Subsequently, 40 μL of the reaction mixture is transferred onto Immobilon-PVDF membrane (Millipore, Bedford, Mass., USA) previously soaked for 5 min with methanol, rinsed with water, then soaked for 5 min with 0.5% H3PO4 and mounted on vacuum manifold with disconnected vacuum source. After spotting all samples, vacuum is connected and each well rinsed with 200 μL 0.5% H3PO4. Membranes are removed and washed 4× on a shaker with 1.0% H3PO4, once with ethanol. Membranes are counted after drying at ambient temperature, mounting in Packard TopCount 96-well frame, and addition of 10 μL/well of Microscint™ (Packard). IC50 values are calculated by linear regression analysis of the percentage inhibition of each compound in duplicate, at four concentrations (usually 0.01, 0.1, 1 and 10 μM). One unit of protein kinase activity is defined as 1 nmole of ^33P transferred from [γ3P] […]

The IC50 is the point on the concentration scale where inhibition reaches its midpoint. High values mean lower potency, low ones higher potency. Broadly, the melting point is the temperature of the solid-liquid transition.

In turn, `CC(C)N1CCN(Cc2cc(NC(=O)Nc3ccc(Oc4cc(Cl)ncn4)cc3)cc(C(F)(F)F)c2)CC1` [Example 5, N-[4-(6-Chloro-pyrimidin-4-yloxy)-phenyl]-N′-[3-(4-isopropylpiperazin-1-ylmethyl)-5-trifluoromethyl-phenyl]-urea] returned a melting point of 101 °C. Also, at Flt-3, the IC50 was 540 nM.
`CN1CCN(Cc2cc(NC(=O)Nc3ccc(Oc4cc(Cl)ncn4)cc3)cc(C(F)(F)F)c2)CC1` [Example 9, N-[4-(6-Chloro-Pyrimidin-4-yloxy)-phenyl]-N′-[3-(4-methylpiperazin-1-ylmethyl)-5-trifluoromethyl-phenyl]-urea] came in with a melting point of 291 to 292 °C. The IC50 at Flt-3 amounted to 320 nM.
The matching figures for `CCN(CC)Cc1cc(NC(=O)Nc2ccc(Oc3cc(NC)ncn3)cc2)cc(C(F)(F)F)c1` [Example 11, N-[4-(6-Methylamino-pyrimidin-4-yloxy)-phenyl]-N′-(3-diethylaminomethyl-5-trifluoromethyl-phenyl)-urea]: 68 to 70 °C and 230 nM.
Compound `CCN(CC)Cc1cc(NC(=O)Nc2ccc(Oc3cc(N)ncn3)cc2)cc(C(F)(F)F)c1` [Example 13, N-[4-(6-Amino-pyrimidin-4-yloxy)-phenyl]-N′-(3-diethylaminomethyl-5-trifluoromethyl-phenyl)-urea] gave a melting point of 63 to 65 °C. For the same compound, on Flt-3, 340 nM corresponded to half-maximal inhibition (IC50).
`Nc1cc(Oc2ccc(NC(=O)Nc3ccc(CN4CCNCC4)c(C(F)(F)F)c3)cc2)ncn1` [Example 19-1, N-[4-(6-Amino-pyrimidin-4-yloxy)-phenyl]-N′-[4-(4-H-piperazin-1-ylmethyl)-5-trifluoromethyl-phenyl]-urea] returned a melting point of 153 to 155 °C. Further, at Flt-3, the IC50 was 38 nM.
Compound `CNc1cc(Oc2ccc(NC(=O)Nc3ccc(CN4CCNCC4)c(C(F)(F)F)c3)cc2)ncn1` [Example 19-2, N-[4-(6-Methylamino-pyrimidin-4-yloxy)-phenyl]-N′-[4-(4-H-piperazin-1-ylmethyl)-5-trifluoromethyl-phenyl]-urea] showed a melting point of 197 to 198 °C. Moreover, the concentration for half-maximal inhibition (IC50) on Flt-3 amounted to 80 nM.
`CN(C)Cc1ccc(NC(=O)Nc2ccc(Oc3cc(Cl)ncn3)cc2)cc1C(F)(F)F` [Example 20-2, N-[4-(6-Chloro-pyrimidin-4-yloxy)-phenyl]-N′-[4-(N,N-dimethylamino-methyl)-3-trifluoromethyl-phenyl]-urea] gave a melting point of 98 to 105 °C.
For `Cc1ncn(Cc2ccc(NC(=O)Nc3ccc(Oc4cc(Cl)ncn4)cc3)cc2C(F)(F)F)c1C` [Example 23, N-[4-(6-Chloro-pyrimidin-4-yloxy)-phenyl]-N′-[4-(4,5-dimethylimidazol-1-ylmethyl)-3-trifluoromethyl-phenyl]-urea], the melting point lay within 195 to 196 °C. This compound also had an IC50 on Flt-3 of 1300 nM.
For the compound `Cc1nccn1Cc1ccc(NC(=O)Nc2ccc(Oc3cc(Cl)ncn3)cc2)cc1C(F)(F)F` [Example 24, N-[4-(6-Chloro-pyrimidin-4-yloxy)-phenyl]-N′-[4-(2-methylimidazol-1-ylmethyl)-3-trifluoromethyl-phenyl]-urea], the melting point turned out to be 228 °C. The same compound had an IC50 on Flt-3 of 170 nM.
`CCN1CCN(Cc2ccc(NC(=O)Nc3ccc(Oc4cc(Cl)ncn4)cc3)cc2)CC1` [Example 27, N-[4-(6-Chloro-pyrimidin-4-yloxy)-phenyl]-N′-[4-(4-ethylpiperazin-1-ylmethyl)-phenyl]-urea] showed a melting point of 203 to 204 °C.
Regarding `CNC(=O)c1cc(NC(=O)Nc2ccc(Oc3cc(NC)ncn3)cc2)cc(C(F)(F)F)c1` [Example 41, 3-{3-[4-(6-Methylamino-pyrimidin-4-yloxy)-phenyl]-ureido}-N-methyl-5-trifluoromethyl-benzamide], the IC50 on Flt-3 was 420 nM.
The compound `CNC(=O)c1cc(NC(=O)Nc2ccc(Oc3cc(N)ncn3)cc2)cc(C(F)(F)F)c1` [Example 43, 3-{3-[4-(6-Amino-pyrimidin-4-yloxy)-phenyl]-ureido}-N-methyl-5-trifluoromethyl-benzamide] had an IC50 against Flt-3 of 160 nM.
In the case of `CNc1nccc(Oc2ccc(NC(=O)Nc3ccc(CN(C)C)c(C(F)(F)F)c3)cc2)n1` [Example 48, N-[4-(2-Methylamino-pyrimidin-4-yloxy)-phenyl]-N′-[4-(4-dimethylamino-methyl) 3-trifluoromethyl-phenyl]-urea], the IC50 against Flt-3 was found to be 580 nM.
On the same count and under the same terms, the result for `Cc1nccn1Cc1ccc(NC(=O)Nc2ccc(Oc3ccnc(N)n3)cc2)cc1C(F)(F)F` [Example 51b.1] reads 130 nM; that for `CNc1nccc(Oc2ccc(NC(=O)Nc3ccc(Cn4ccnc4C)c(C(F)(F)F)c3)cc2)n1` [Example 51b.2], 170 nM; that for `CCN1CCN(Cc2ccc(NC(=O)Nc3ccc(Oc4ccnc(N)n4)cc3)cc2C)CC1` [Example 51d.1], 91 nM.
Same read-out and setting: to `CCN1CCN(Cc2ccc(NC(=O)Nc3ccc(Oc4ccnc(NC)n4)cc3)cc2C)CC1` [Example 51d.2] belongs 135 nM; to `CCN1CCN(Cc2ccc(NC(=O)Nc3ccc(Oc4ccnc(N)n4)cc3)cc2)CC1` [Example 51e.1], 250 nM.
As to `CCN1CCN(Cc2ccc(NC(=O)Nc3ccc(Oc4ccnc(NC)n4)cc3)cc2)CC1` [Example 51e.2], at Flt-3, the IC50 came out at 910 nM.
On the same count and under the same terms, to `Nc1nccc(Oc2ccc(NC(=O)Nc3cccc(C(F)(F)F)c3)cc2)n1` [Example 52b] belongs 80 nM; to `Nc1nccc(Oc2ccc(NC(=O)Nc3cc(-c4ccccn4)cc(C(F)(F)F)c3)cc2)n1` [Example 52d], 260 nM; to `COc1cccc(Nc2cc(Oc3ccc(NC(=O)Nc4ccc(N5CCOCC5)c(C(F)(F)F)c4)cc3)ncn2)c1` [Example 55c], 370 nM.
Same read-out and setting: to `O=C(Nc1ccc(Oc2cc(NC3CCC(O)CC3)ncn2)cc1)Nc1ccc(N2CCOCC2)c(C(F)(F)F)c1` (centres unmarked) [Example 55d] belongs 970 nM; to `Nc1cc(Oc2ccc(NC(=O)Nc3ccc(-c4ccccn4)c(C(F)(F)F)c3)cc2)ncn1` [Example 57, 1-[4-(6-Amino-pyrimidin-4-yloxy)-phenyl]-3-(4-pyridin-2-yl-3-trifluoromethyl-phenyl)-urea], 118 nM.
`Nc1cc(Oc2ccc(NC(=O)Nc3ccc(-c4cccnc4)c(C(F)(F)F)c3)cc2)ncn1` [Example 58, 1-[4-(6-Amino-pyrimidin-4-yloxy)-phenyl]-3-(4-pyridin-3-yl-3-trifluoromethyl-phenyl)-urea]: the melting point lay within 132 to 135 °C. This compound returned an IC50 against Flt-3 of 120 nM.
As to `CCN1CCN(Cc2ccc(NC(=O)Nc3ccc(Oc4cc(NC(=O)OC)ncn4)cc3)cc2C(F)(F)F)CC1` [Example 70], the melting point is 191 to 193 °C.
